{
  "source": "patent US20070161697A1",
  "about": "“Hydrazide type compounds and the use thereof in pharmaceutical compositions for the treatment of cardiovascular diseases” (priority 2004, published 2007)",
  "key": {"Wistar rats [1]": {"system": "Wistar rats", "experiment": "Total cholesterol in plasma, rats on dietary regimen rich in fructose", "format": "in vivo", "details": "50 mg/kg oral, 3 weeks of treatment", "procedure": "Secondly, the activity of the compound CGP 02-01 was studied using a reference rat-fructose model. Groups of Wistar rats (n=12) were subjected for 3 weeks to a dietary regimen containing […] of fructose. Under these conditions, the rats develop a metabolic syndrome comprising hyperglycaemia, hyperinsulinaemia, hypercholesterolaemia and hypertriglyceridaemia. Groups of rats subsequently received by forced feeding 50 mg/kg of the compound CGP 02-01 dissolved in a 2% tween solution prepared in methylcellulose. The blood samples for the biochemical analyses were performed after 1, 2 and 3 weeks. Independent groups of rats wee treated under the same conditions with metformin hydrochloride at a dose of 50 mg/kg. The metformin served as a reference in this metabolic syndrome model. The circulating total cholesterol may be measured by enzymatic assay using the commercially available kit. This assay may for example use an enzymatic sequence of the cholesterol-esterase/cholesteroloxydase/chromogenic peroxidase type. In summary, the total esterified cholesterol is transformed into free cholesterol and fatty acid by the action of cholesterol esterase. The non-esterified cholesterol is subsequently measured by the formation of quinoeimine in the presence of cholesterol oxidase and peroxidise. The intensity of the quinoneimine coloration is proportional to the quantity of cholesterol present in the sample."}, "ApoE −/− mice [2]": {"system": "ApoE −/− mice", "experiment": "Circulating triglycerides, ApoE −/− mice on regimen rich in cholesterol and fat", "format": "in vivo", "details": "1 mg/kg; 3 months", "from_the_text": "Firstly, mice devoid of the coding gene for Apo lipoprotein E (ApoE −/−) have been used. These mice represent a model of choice of studying early atherosclerosis and development of a plaque rich in foamy macrophages. Male C57BL/6J mice homozygote for deletion of the ApoE gene were subjected to a normal dietary regimen until the age of eight weeks. These mice (n=8 per group) subsequently received ad libitum and for 12 weeks either a dietary regimen not enriched with cholesterol or fat, or an enriched regimen, containing 1.5 g/kg of cholesterol and 200 g/kg of fat of milk origin. The untreated mice underwent daily intraperitoneal injections of a solution containing DMSO at 10%. The treated mice received by intraperitoneal injection the same solution containing 2 or 20 μg (i.e. 0.1 mg/kg/day or 1 mg/kg/day) of the compound CGP 02-01. […]\nAssay of serum triglycerides may be performed enzymatically using the commercially available kit. […] The glycerol 3 phosphate is subsequently transformed into dihydroxyacetone in generating oxygenated water (H202) which may be detected by formation of quinoneimine in the presence of parachlorophenol, amino-4-antipyrin and peroxidase. The intensity of the quinoneimine coloration is subsequently measured at 505 nm. This coloration is proportional to the quantity of triglycerides present in the sample."}, "Wistar rats [3]": {"system": "Wistar rats", "experiment": "Circulating triglycerides, rats on dietary regimen rich in fructose", "format": "in vivo", "details": "oral", "procedure": "Secondly, the activity of the compound CGP 02-01 was studied using a reference rat-fructose model. Groups of Wistar rats (n=12) were subjected for 3 weeks to a dietary regimen containing […] of fructose. […] Groups of rats subsequently received by forced feeding 50 mg/kg of the compound CGP 02-01 dissolved in a 2% tween solution prepared in methylcellulose. The blood samples for the biochemical analyses were performed after 1, 2 and 3 weeks. Independent groups of rats wee treated under the same conditions with metformin hydrochloride at a dose of 50 mg/kg. The metformin served as a reference in this metabolic syndrome model. Assay of serum triglycerides may be performed enzymatically using the commercially available kit. One may use kits from Biomérieux for example (ref. 61.238). In summary, the triglycerides are treated with a lipase in order to generate fatty acids. In the presence of ATP, the glycerol is transformed by glycerokinase into glycerol 3 phosphate. The glycerol 3 phosphate is subsequently transformed into dihydroxyacetone in generating oxygenated water (H202) which may be detected by formation of quinoneimine in the presence of parachlorophenol, amino-4-antipyrin and peroxidase. The intensity of the quinoneimine coloration is subsequently measured at 505 nm. This coloration is proportional to the quantity of triglycerides present in the sample."}, "ApoE −/− mice [4]": {"system": "ApoE −/− mice", "experiment": "Insulin in plasma, ApoE −/− mice on regimen rich in cholesterol", "format": "in vivo", "from_the_text": "(§1) Firstly, mice devoid of the coding gene for Apo lipoprotein E (ApoE −/−) have been used. These mice represent a model of choice of studying early atherosclerosis and development of a plaque rich in foamy macrophages. Male C57BL/6J mice homozygote for deletion of the ApoE gene were subjected to a normal dietary regimen until the age of eight weeks. These mice (n=8 per group) subsequently received ad libitum and for 12 weeks either a dietary regimen not enriched with cholesterol or fat, or an enriched regimen, containing 1.5 g/kg of cholesterol and 200 g/kg of fat of milk origin. The untreated mice underwent daily intraperitoneal injections of a solution containing DMSO at 10%. The treated mice received by intraperitoneal injection the same solution containing 2 or 20 μg (i.e. 0.1 mg/kg/day or 1 mg/kg/day) of the compound CGP 02-01. Following the blood sample for the biochemical analyses, the mice were killed.\nAssay of insulin in plasma may be performed by radioimmunological assay using commercially available kits comprising specific anti-insulin antibodies of mice or rats. One may for example use the rat/mouse ELISA kits, Linco research (ref. EZRMI-13K)."}, "ApoE −/− mice [5]": {"system": "ApoE −/− mice", "experiment": "Abdominal fatty mass, ApoE mice on regimen rich in cholesterol and fat", "format": "in vivo", "details": "1 mg/kg, 3 months", "from_the_text": "as §1\nApoE mice subjected to a dietary regimen rich in cholesterol and fat were killed after 3 months of treatment with the compound CGP 02-01 at doses of 0.1 mg/kg and 1 mg/kg. The abdominal fatty mass was recovered by dissection, dried and expressed as dry weight."}, "ApoE −/− mice [6]": {"system": "ApoE −/− mice", "experiment": "Triglyceride deposit in the aortas of ApoE −/− mice", "format": "in vivo", "details": "control 185±33", "from_the_text": "as §1\nThe triglycerides which accumulate in the aortic wall were measured in the following manner: the aortas of the animals are rinsed with physiological saline after dissection. The lipid mass of the adventitia is eliminated by dissection and the intima media is dehydrated. The triglyceride level is measured and expressed as the weight of triglycerides per dry weight of tissue."}, "ApoE negative mice [7]": {"system": "ApoE negative mice", "experiment": "Histological analysis of the aortic lesions (atheroma plaque) of ApoE negative mice", "format": "in vivo", "details": "aorta of treated vs untreated mice; FIG. 6", "from_the_text": "as §1\nThe aortas of the mice are fixed with paraformaldehyde and are dissected into 10 μm sections for histological analysis of the lesions (FIG. 6)."}, "rats": {"system": "rats", "experiment": "Hyperglycaemia test (glucose tolerance) in rats on fructose-rich regimen", "format": "in vivo", "details": "oral, glucose shock after 14th day, FIG. 18", "from_the_text": "Rats (n=12) were subjected to a dietary regimen rich in fructose (10%) for 21 days. After the 14th day, hyperglycaemic shock is induced by administration of 2 g/kg of glucose in the presence or absence of the compound CGP 02-01 administered via the oral route. The plasma glucose level is subsequently measured."}, "ApoE negative mice [8]": {"system": "ApoE negative mice", "experiment": "Weight gain / abdominal fatty mass in ApoE negative mice on normal regimen", "format": "in vivo", "details": "20 μg per day for 41 days; normal dietary regimen; FIG. 2", "procedure": "The mice were treated for 41 days at a dose of 20 μg of compound CGP02-01 per day. The control mice and the treated mice were fed with a normal dietary regimen without any cholesterol overload."}},
  "data": [
    {"smiles": "COc1cc(O)c(/C=N/NC(=O)c2cc3ccccc3s2)c(OC)c1", "note": "[CGP02-01, N′-[(1E)-(2-hydroxy-4,6-dimethoxyphenyl)methylene]-1-benzothiophene-2-carbohydrazide]", "values": [
      {"measurement": "Reduction in total cholesterol", "setting": "Wistar rats [1]", "result": 54.5, "unit": "%"},
      {"measurement": "Plasma total cholesterol level", "setting": "Wistar rats [1]; control 0.79±0.05", "result": "0.36 ± 0.03", "unit": "g/L"},
      {"measurement": "Variation of plasma triglyceride level, treated in relation to untreated mice", "setting": "ApoE −/− mice [2]", "result": "twice as great"},
      {"measurement": "Plasma triglyceride level", "setting": "Wistar rats [3]; 50 mg/kg, 3 weeks, control 1.39±0.13", "result": "0.47 ± 0.07", "unit": "g/L"},
      {"measurement": "Variation of plasma triglyceride level", "setting": "Wistar rats [3]; p<0.01", "result": 66.2, "unit": "%"},
      {"measurement": "Variation of plasma insulin level", "setting": "ApoE −/− mice [4]; 0.1 or 1 mg/kg", "result": 18.8, "unit": "%"},
      {"measurement": "Plasma insulin level", "setting": "ApoE −/− mice [4]; 0.1 or 1 mg/kg IP, 3 months, control 1.17±0.2, p<0.01", "result": "0.95 ± 0.16", "unit": "ng/mL"},
      {"measurement": "Reduction in abdominal fatty mass", "setting": "ApoE −/− mice [5]", "result": 48.3, "unit": "%"},
      {"measurement": "Abdominal fatty mass (dry weight)", "setting": "ApoE −/− mice [5]; control 760±231, p<0.01", "result": "393 ± 78", "unit": "mg"},
      {"measurement": "Triglyceride deposit on the aortic wall", "setting": "ApoE −/− mice [6]; 0.1 mg/kg", "result": "156 ± 31", "unit": "µg/mg"},
      {"measurement": "Triglyceride deposit on the aortic wall", "setting": "ApoE −/− mice [6]; 1 mg/kg, three months, n=8", "result": "131 ± 42 µg/mg (dry weight)"},
      {"measurement": "Foamy macrophages and inflammatory reaction in the atheroma plaque", "setting": "ApoE negative mice [7]", "result": "significant reduction in these macrophages"},
      {"measurement": "Effect against induced hyperglycaemia (2 g/kg glucose)", "setting": "rats", "result": "protective effect"},
      {"measurement": "Weight gain (abdominal fatty mass)", "setting": "ApoE negative mice [8]", "result": "reduction in weight gain"},
      {"measurement": "melting point", "result": 205.4, "unit": "°C"}
    ]}
  ]
}
